Results taken from patent publication US6727253B2, “Treatment of accidental extravasation of anthracyclines” (Antianthra APS, priority 1999, dated 2004).
Like-named read-outs stand apart in the source and are kept apart here.

System: SC idarubicin induced wounds in mice
Conditions: for AUC / DW / FW / TTW: Table A
Procedure: The mice were euthanized after healing of all wounds.
[…] Half of the groups served a saline controls, whereas in the other half of the groups ICRF-187 250 mg/kg was administered IP at t=0.

[1] = Example 9, idarubicin 0.05 mg/kg sc + ICRF-187 250 mg/kg IP at t=0
[2] = Example 9, idarubicin 0.25 mg/kg sc + ICRF-187 250 mg/kg IP at t=0
[3] = Example 9, idarubicin 0.75 mg/kg sc + ICRF-187 250 mg/kg IP at t=0
[4] = idarubicin 0.05 mg/kg SC + DEX 250 mg/kg IP at t=0
[5] = idarubicin 0.25 mg/kg SC + DEX 250 mg/kg IP at t=0
[6] = idarubicin 0.75 mg/kg SC + DEX 250 mg/kg IP at t=0, pooled data
[7] = idarubicin 1.50 mg/kg SC + DEX 250 mg/kg IP at t=0

## C[C@@H](CN1CC(=O)NC(=O)C1)N1CC(=O)NC(=O)C1 [ICRF-187, (+)-1,2-bis(3,5-dioxopiperazinyl-1-yl)propane]
[1]
  Mean AUC: 4 mm^2 × days
  Mean DWw ± SEM: 13.0 ± 0.0 days
  Mean TTWw ± SEM: 12.0 ± 0.0 days
  Nw/NG: 11%
[2]
  Mean AUC: 38 mm^2 × days
  Mean DWw ± SEM: 20.0 ± 0.0 days
  Mean TTWw ± SEM: 6.0 ± 0.0 days
  Nw/NG: 11%
[3]
  Mean AUC: 44 mm^2 × days
  Mean DWw ± SEM: 17.5 ± 0.5 days
  Mean TTWw ± SEM: 8.0 ± 0.0 days
  Nw/NG: 22%
Example 9, idarubicin 0.75 mg/kg sc, ICRF-187 250 mg/kg IP vs saline, p<0.05
  reduction in the AUC: 90%
[4]
  AUC: 4 (± 4) mm^2×days
  DW: 13.0 (± 0.0) days
  FW: 11%
  TTW: 12.0 (± 0.0) days
[5]
  AUC: 38 (± 38) mm^2×days
  DW: 20.0 (± 0.0) days
  FW: 11%
  TTW: 6.0 (± 0.0) days
[6]
  AUC: 42 (± 19) mm^2×days
  DW: 15.6 (± 2.7) days
  FW: 28%
  TTW: 10.2 (± .5) days
[7]
  AUC: 183 (± 54) mm^2×days
  DW: 17.8 (± 0.9) days
  FW: 75%
  TTW: 7.7 (± 0.2) days
mouse, in vivo
  deaths due to the treatment: no deaths due to the treatment
